In PubChem BioAssay (NCI):
Values joined by “and” are separate entries in the source; they are usually repeats but may differ in a detail not shown here. Identical values can stand only once.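 48-hour exposure; five concentrations; linearly interpolated endpoints. Abbreviation: GI50, concentration required for 50% inhibition of growth. TGI marks complete inhibition of growth.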

Assays:
Experiment in all cases: inhibition of tumour cell growth, NCI panel, 48 h
U251 CNS = test system: U251 CNS
UACC-62 melanoma = test system: UACC-62 melanoma
HT29 colon = test system: HT29 colon
EKVX NSCLC = test system: EKVX NSCLC
SW-620 colon = test system: SW-620 colon
HL-60(TB) leukemia = test system: HL-60(TB) leukemia
M14 melanoma = test system: M14 melanoma
LOX IMVI melanoma = test system: LOX IMVI melanoma
CCRF-CEM leukemia = test system: CCRF-CEM leukemia
OVCAR-8 ovarian = test system: OVCAR-8 ovarian

| Structure (SMILES) | GI50 (U251 CNS) | TGI (U251 CNS) | GI50 (UACC-62 melanoma) | TGI (UACC-62 melanoma) | GI50 (HT29 colon) | TGI (HT29 colon) | GI50 (EKVX NSCLC) | TGI (EKVX NSCLC) | GI50 (SW-620 colon) | TGI (SW-620 colon) | GI50 (HL-60(TB) leukemia) | TGI (HL-60(TB) leukemia) | GI50 (M14 melanoma) | TGI (M14 melanoma) | GI50 (LOX IMVI melanoma) | TGI (LOX IMVI melanoma) | GI50 (CCRF-CEM leukemia) | TGI (CCRF-CEM leukemia) | GI50 (OVCAR-8 ovarian) | TGI (OVCAR-8 ovarian) |
| --- | --- | --- | --- | --- | --- | --- | --- | --- | --- | --- | --- | --- | --- | --- | --- | --- | --- | --- | --- | --- |
| O=S(=O)(CCOCc1ccc(-c2ccc3ncnc(Nc4ccc(OCc5cccc(F)c5)c(Cl)c4)c3c2)o1)c1ccccc1 | > 25 µM | > 25 µM | > 25 µM | > 25 µM | > 25 µM | > 25 µM | 0.754 µM | > 25 µM | > 25 µM | > 25 µM | > 25 µM | > 25 µM | > 25 µM | > 25 µM | > 25 µM | > 25 µM | > 25 µM | > 25 µM | > 25 µM | > 25 µM |
| CCOC(=O)c1ccc(N[C@@H]2c3cc4c(cc3C(C3=CC(=O)C(=O)C(OC)=C3)[C@H]3C(=O)OCC32)OCO4)cc1 (stereo partly drawn) | – | 4.77 µM | – | 7.69 µM | – | 18.2 µM | – | 26.3 µM | – | 20.1 µM | – | > 19.7 µM | – | 9.96 µM | – | 11.4 µM | – | > 28.1 µM | – | 15.9 µM |
| O=C1C=C(O)c2[nH]c(=O)ccc2C1=O | – | > 100 µM | – | > 100 µM | – | > 100 µM | – | > 100 µM | – | > 100 µM | – | > 100 µM | – | > 100 µM | – | > 100 µM | – | > 100 µM | – | > 100 µM |
| O=C(/C=C/c1ccccc1)CC(c1ccccc1)N1CCOCC1 (stereo not drawn) | 2.44 µM | 5.21 µM | 9.07 µM | 21.8 µM | 3.7 µM | 16.7 µM | 9.52 µM | 22.3 µM | 2.33 µM | 4.91 µM | 3.68 µM | 18.1 µM | 1.79 µM | 3.41 µM | 0.371 µM | 1.36 µM | 2.42 µM | 7.3 µM | 4.57 µM | 17.3 µM |
| Cc1ccc2c(c1)Sc1ccc(N=NN(C)C)cc1N2C | – | > 100 µM | – | > 100 µM | – | > 100 µM | – | > 100 µM | – | > 100 µM | – | > 100 µM | – | > 100 µM | – | > 100 µM | – | > 100 µM | – | > 100 µM |
| Cl[Si]1(Cl)Oc2ccccc2O[Si](Cl)(Cl)Oc2ccccc2O1 | – | > 100 µM | – | 20.9 µM | – | 70.9 µM | – | > 100 µM | – | 54.5 µM | – | 4.63 µM | – | 34.3 µM | – | 36.5 µM | – | 10.5 µM | – | > 100 µM |
| CCN(CC)CCNC(=O)c1c(C)[nH]c(/C=C2\C(=O)Nc3ccc(F)cc32)c1C | 5.33 µM and 3.06 µM and 2.25 µM | > 10 µM and 6.34 µM and 7.54 µM | > 10 µM and 3.26 µM and 4.12 µM | > 10 µM and 6.98 µM and 10.9 µM | 1.07 µM and 1.3 µM and 1.54 µM | 5.21 µM and 4.99 µM and 3.69 µM | > 10 µM and 5.27 µM and 8.38 µM | > 10 µM and 20 µM and 21.9 µM | 1.76 µM and 1.95 µM and 1.4 µM | 7.67 µM and 5.22 µM and 4.22 µM | 0.353 µM and 2.42 µM and 0.847 µM | 4.34 µM and 6.34 µM and 4.13 µM | 0.574 µM and 1.03 µM and 0.687 µM | 2.33 µM and 3.56 µM and 2.23 µM | 1.29 µM and 2.29 µM and 1.32 µM | 2.92 µM and 5.01 µM and 3 µM | 5.62 µM and 6.48 µM and 1.89 µM | > 10 µM and 20 µM and 8.85 µM | 9.05 µM and 2.81 µM and 6.09 µM | > 10 µM and 6.95 µM and 23.1 µM |
| CC1(C)CC[C@H](C2=CC(=O)c3c(O)ccc(O)c3C2=O)O1 | 3.71 µM and 2.51 µM and 1.5 µM | 6.5 µM and 7.21 µM and 3.19 µM | 2.36 µM and 1.3 µM and 0.54 µM | 5.28 µM and 2.66 µM and 1.53 µM | 3.17 µM and 1.72 µM and 0.773 µM | 7.29 µM and 3.63 µM and 1.83 µM | 4.7 µM and 1.48 µM and 1.35 µM | 11.8 µM and 3.03 µM and 3.95 µM | 0.66 µM and 0.374 µM and 0.0996 µM | 1.67 µM and 1.64 µM and 0.229 µM | 0.505 µM and 0.131 µM | 1.36 µM and 0.442 µM | 0.797 µM and 0.274 µM and 0.201 µM | 1.78 µM and 0.859 µM and 0.438 µM | 1.78 µM and 0.303 µM and 0.658 µM | 4.66 µM and 1.13 µM and 1.97 µM | 0.666 µM and 0.114 µM | – | 2.27 µM and 0.675 µM and 0.581 µM | 20.4 µM and 3.44 µM and 2.12 µM |
| Cc1cc2c(Br)cc(Br)c(O)c2nc1C(=O)c1ccccc1 | – | > 71.3 µM | – | 15.3 µM | – | > 79.1 µM | – | > 100 µM | – | > 100 µM | – | 8.11 µM | – | > 60.2 µM | – | > 86 µM | – | > 100 µM | – | > 100 µM |
| Cc1ncc(C(=O)Nc2ccc(CN3CCN(C)CC3)c(C(F)(F)F)c2)cc1C#Cc1cnc(NC2CC2)c2ncccc12 | 0.581 µM | 1.11 µM | 0.874 µM | 2.38 µM | 0.474 µM | 1.31 µM | 0.659 µM | 1.21 µM | 0.714 µM | 1.33 µM | 0.67 µM | 1.47 µM | 0.56 µM | 1.11 µM | 0.59 µM | 1.11 µM | 0.614 µM | 1.46 µM | 0.708 µM | 1.54 µM |
| O=C/C(=C(/Cl)c1ccc(O)cc1)c1ccccc1 | – | > 56.5 µM | – | 22 µM | – | > 62.7 µM | – | > 75.7 µM | – | > 68 µM | – | > 100 µM | – | > 57.1 µM | – | 46.9 µM | – | > 100 µM | – | > 92.4 µM |
| O=S1(=O)NCCCN1CCNc1nccc(-c2c(-c3cccc(O)c3)nc3sccn23)n1 | 21.6 µM | > 100 µM | 0.0873 µM | 5.66 µM | 7.65 µM | > 100 µM | 61.3 µM | > 100 µM | 33 µM | > 100 µM | 23 µM | 60 µM | 0.366 µM | 15.5 µM | 2.46 µM | 24 µM | 13.5 µM | > 100 µM | 2.86 µM | > 100 µM |
| Cc1nnc(N/N=C(/C(=O)C(C#N)c2ccccc2)C(C#N)c2ccccc2)n1N (stereo not drawn) | – | > 83.1 µM | – | > 62.6 µM | – | > 65.7 µM | – | > 100 µM | – | 8.19 µM | – | 57.8 µM | – | 31.2 µM | – | 5.65 µM | – | 15.9 µM | – | 15.2 µM |
| CCCCCCCCCCCCCC(=O)OCC1OC(=O)CC1O (stereo not drawn) | – | > 100 µM | – | > 100 µM | – | > 100 µM | – | > 100 µM | – | > 100 µM | – | > 100 µM | – | 47.9 µM | – | > 100 µM | – | > 100 µM | – | > 100 µM |
| NC(=O)C1(N2CCCCC2)CCN(CCCC(=O)c2ccc(F)cc2)CC1 | 0.263 µM | > 100 µM | 0.219 µM | > 100 µM | 0.818 µM | > 20 µM | 6.01 µM | > 100 µM | 0.173 µM | > 100 µM | 0.801 µM | 4.19 µM | 2.28 µM | 7.72 µM | 0.254 µM | > 100 µM | 0.121 µM | – | 4.91 µM | > 100 µM |
| CC(=O)[O-].CC(=O)[O-].CC(=O)[O-].CC(=O)[O-].[Mo+2].[Mo+2] | > 100 µM | > 100 µM | > 100 µM | > 100 µM | > 100 µM | > 100 µM | > 100 µM | > 100 µM | > 100 µM | > 100 µM | > 100 µM | > 100 µM | > 100 µM | > 100 µM | > 100 µM | > 100 µM | > 100 µM | > 100 µM | > 100 µM | > 100 µM |
| CCOC(=O)/C(=C/c1cccc(OC)c1)N(CC)CC | – | > 100 µM | – | > 100 µM | – | > 100 µM | – | > 100 µM | – | > 100 µM | – | > 100 µM | – | > 100 µM | – | > 100 µM | – | > 100 µM | – | > 100 µM |
| OC(c1ccc(Br)cc1)(c1cccs1)C1CC1 (stereo not drawn) | – | 35.4 µM | – | 33.3 µM | – | 68 µM | – | > 100 µM | – | 87.5 µM | – | 52.7 µM | – | 45.3 µM | – | 42.4 µM | – | 91.8 µM | – | 54.1 µM |
| CC(=O)OC1COC(n2c(=S)n(-c3ccccc3)c(=O)c3cc(Br)ccc32)C(OC(C)=O)C1OC(C)=O (stereo not drawn) | – | 44.5 µM | – | > 100 µM | – | > 100 µM | – | > 100 µM | – | > 100 µM | – | > 100 µM | – | > 100 µM | – | > 100 µM | – | > 100 µM | – | > 100 µM |
| CNC(=O)c1cc2c(Oc3ccc(NC(=O)C4(C(=O)Nc5ccc(F)cc5)CC4)cc3)ccnc2cc1OC | 3.51 µM | > 100 µM | 1.54 µM | 15 µM | 2.42 µM | > 100 µM | 3.39 µM | > 100 µM | 2.64 µM | > 100 µM | 2.63 µM | 6.63 µM | 2.45 µM | 11.2 µM | 2.57 µM | 8.93 µM | 3 µM | > 100 µM | 3.77 µM | > 100 µM |
| COc1ccc(/C=C2/CCc3cc4ccc(OC)cc4[o+]c32)c(O)c1 | 2.3 µM | 5.57 µM | 5.2 µM | 19.9 µM | 2.12 µM | 4.67 µM | 12.5 µM | 26.8 µM | 2.23 µM | 5.09 µM | 4.96 µM | 61.4 µM | 3.1 µM | 14.6 µM | 2.12 µM | 5.02 µM | 3.88 µM | > 100 µM | 2.27 µM | 6.13 µM |
| O=C1C(Cl)=C(Nc2ccccc2)C(=O)c2ccccc21 | 1.8 µM | 3.24 µM | 1.72 µM | 3.3 µM | 2.27 µM | 4.72 µM | 2.21 µM | 5.38 µM | 1.09 µM | 2.92 µM | 1.77 µM | 5.31 µM | 1.88 µM | 3.57 µM | 0.856 µM | 2.86 µM | 2.37 µM | > 100 µM | 1.71 µM | 3.2 µM |
| c1ccc2nc3c(cc4ccccn43)nc2c1 | 39.9 µM | > 100 µM | 17.4 µM | > 100 µM | > 100 µM | > 100 µM | 18.9 µM | > 100 µM | > 100 µM | > 100 µM | > 100 µM | > 100 µM | > 100 µM | > 100 µM | 47.1 µM | > 100 µM | > 100 µM | > 100 µM | 34.8 µM | > 100 µM |
